Test results published in ChEMBL document CHEMBL1201862, “PubChem BioAssay data set” (2004).
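96-well plates; 48 h exposure; 5 concentrations. Endpoints by linear interpolation between flanking doses. Not reached: highest tested concentration assigned. The concentration for 50% growth inhibition is given as GI50.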 Active and inactive are the calls of the source. Rule as the data show it: active = GI50 up to about 1.1 µM and inactive = higher.

Key:
Test in all cases: DTP human tumour cell line panel, 48 h
A498 = tested on: A498
OVCAR-4 = tested on: OVCAR-4
Hs-578T = tested on: Hs-578T
A549 = tested on: A549
M14 = tested on: M14
OVCAR-3 = tested on: OVCAR-3
MDA-MB-435 = tested on: MDA-MB-435
SK-MEL-2 = tested on: SK-MEL-2
HCC 2998 = tested on: HCC 2998
EKVX = tested on: EKVX
SW-620 = tested on: SW-620
HL-60 = tested on: HL-60
TK-10 = tested on: TK-10
SF-295 = tested on: SF-295
BT-549 = tested on: BT-549
MDA-MB-231 = tested on: MDA-MB-231
HOP-92 = tested on: HOP-92
HCT-116 = tested on: HCT-116
NCI-H226 = tested on: NCI-H226
HT-29 = tested on: HT-29
U-251 = tested on: U-251
DU-145 = tested on: DU-145
IGROV-1 = tested on: IGROV-1
NCI-H23 = tested on: NCI-H23
UO-31 = tested on: UO-31
NCI-H460 = tested on: NCI-H460
786-0 = tested on: 786-0
SF-268 = tested on: SF-268
NCI/ADR-RES = tested on: NCI/ADR-RES
NCI-H522 = tested on: NCI-H522
K562 = tested on: K562
OVCAR-8 = tested on: OVCAR-8
UACC-257 = tested on: UACC-257
RXF 393 = tested on: RXF 393
SK-OV-3 = tested on: SK-OV-3
LOX IMVI = tested on: LOX IMVI
SNB-19 = tested on: SNB-19
MDA-N = tested on: MDA-N
SK-MEL-28 = tested on: SK-MEL-28
OVCAR-5 = tested on: OVCAR-5
KM12 = tested on: KM12
SN12C = tested on: SN12C
SK-MEL-5 = tested on: SK-MEL-5
PC-3 = tested on: PC-3
SF-539 = tested on: SF-539
HOP-62 = tested on: HOP-62
UACC-62 = tested on: UACC-62
CCRF-CEM = tested on: CCRF-CEM
CAKI-1 = tested on: CAKI-1
COLO 205 = tested on: COLO 205
MOLT-4 = tested on: MOLT-4
SNB-75 = tested on: SNB-75
HCT-15 = tested on: HCT-15
Malme-3M = tested on: Malme-3M
MCF7 = tested on: MCF7
ACHN = tested on: ACHN
T47D = tested on: T47D
RPMI-8226 = tested on: RPMI-8226

SMILES: CC(=O)N1c2ccccc2Sc2cc(C(O)(C(F)(F)F)C(F)(F)F)ccc21
- GI50 (A498): > 10 µM (inactive)
- GI50 (OVCAR-4): > 10 µM (inactive)
- GI50 (Hs-578T): > 10 µM (inactive)
- GI50 (A549): > 10 µM (inactive)
- GI50 (M14): > 10 µM (inactive)
- GI50 (OVCAR-3): > 10 µM (inactive)
- GI50 (MDA-MB-435): > 10 µM (inactive)
- GI50 (SK-MEL-2): > 10 µM (inactive)
- GI50 (HCC 2998): > 10 µM (inactive)
- GI50 (EKVX): > 10 µM (inactive)
- GI50 (SW-620): > 10 µM (inactive)
- GI50 (HL-60): > 10 µM (inactive)
- GI50 (TK-10): > 10 µM (inactive)
- GI50 (SF-295): > 10 µM (inactive)
- GI50 (BT-549): > 10 µM (inactive)
- GI50 (MDA-MB-231): > 10 µM (inactive)
- GI50 (HOP-92): 4.66 µM (inactive)
- GI50 (HCT-116): > 10 µM (inactive)
- GI50 (NCI-H226): > 10 µM (inactive)
- GI50 (HT-29): > 10 µM (inactive)
- GI50 (U-251): > 10 µM (inactive)
- GI50 (DU-145): > 10 µM (inactive)
- GI50 (IGROV-1): > 10 µM (inactive)
- GI50 (NCI-H23): > 10 µM (inactive)
- GI50 (UO-31): > 10 µM (inactive)
- GI50 (NCI-H460): > 10 µM (inactive)
- GI50 (786-0): > 10 µM (inactive)
- GI50 (SF-268): > 10 µM (inactive)
- GI50 (NCI/ADR-RES): > 10 µM (inactive)
- GI50 (NCI-H522): > 10 µM (inactive)
- GI50 (K562): > 10 µM (inactive)
- GI50 (OVCAR-8): > 10 µM (inactive)
- GI50 (UACC-257): > 10 µM (inactive)
- GI50 (RXF 393): > 10 µM (inactive)
- GI50 (SK-OV-3): > 10 µM (inactive)
- GI50 (LOX IMVI): > 10 µM (inactive)
- GI50 (SNB-19): > 10 µM (inactive)
- GI50 (MDA-N): > 10 µM (inactive)
- GI50 (SK-MEL-28): > 10 µM (inactive)
- GI50 (OVCAR-5): > 10 µM (inactive)
- GI50 (KM12): > 10 µM (inactive)
- GI50 (SN12C): > 10 µM (inactive)
- GI50 (SK-MEL-5): 7.26 µM (inactive)
- GI50 (PC-3): > 10 µM (inactive)
- GI50 (SF-539): > 10 µM (inactive)
- GI50 (HOP-62): > 10 µM (inactive)
- GI50 (UACC-62): > 10 µM (inactive)
- GI50 (CCRF-CEM): > 10 µM (inactive)
- GI50 (CAKI-1): > 10 µM (inactive)
- GI50 (COLO 205): > 10 µM (inactive)
- GI50 (MOLT-4): > 10 µM (inactive)
- GI50 (SNB-75): 9.59 µM (inactive)
- GI50 (HCT-15): > 10 µM
- GI50 (Malme-3M): > 10 µM (inactive)
- GI50 (MCF7): > 10 µM (inactive)
- GI50 (ACHN): > 10 µM (inactive)
- GI50 (T47D): 9.86 µM (inactive)

SMILES: O=S(=O)(O)c1ccc(/N=N/c2ccc3c(S(=O)(=O)O)cccc3c2O)c2ccccc12
- GI50 (A498): > 100 µM (inactive)
- GI50 (OVCAR-4): > 100 µM (inactive)
- GI50 (Hs-578T): > 100 µM (inactive)
- GI50 (A549): > 100 µM (inactive)
- GI50 (RPMI-8226): > 100 µM (inactive)
- GI50 (M14): > 100 µM (inactive)
- GI50 (OVCAR-3): > 100 µM (inactive)
- GI50 (MDA-MB-435): > 100 µM (inactive)
- GI50 (SK-MEL-2): > 100 µM (inactive)
- GI50 (EKVX): > 100 µM (inactive)
- GI50 (SW-620): > 100 µM (inactive)
- GI50 (TK-10): > 100 µM (inactive)
- GI50 (SF-295): > 100 µM (inactive)
- GI50 (BT-549): > 100 µM (inactive)
- GI50 (MDA-MB-231): > 100 µM (inactive)
- GI50 (HOP-92): > 100 µM (inactive)
- GI50 (HCT-116): > 100 µM (inactive)
- GI50 (NCI-H226): > 100 µM (inactive)
- GI50 (HT-29): > 100 µM (inactive)
- GI50 (U-251): > 100 µM (inactive)
- GI50 (DU-145): > 100 µM (inactive)
- GI50 (IGROV-1): > 100 µM (inactive)
- GI50 (NCI-H23): > 100 µM (inactive)
- GI50 (UO-31): 39.3 µM (inactive)
- GI50 (786-0): > 100 µM (inactive)
- GI50 (SF-268): > 100 µM (inactive)
- GI50 (NCI/ADR-RES): > 100 µM (inactive)
- GI50 (NCI-H522): > 100 µM (inactive)
- GI50 (OVCAR-8): > 100 µM (inactive)
- GI50 (UACC-257): > 100 µM (inactive)
- GI50 (RXF 393): > 100 µM (inactive)
- GI50 (SK-OV-3): > 100 µM (inactive)
- GI50 (LOX IMVI): > 100 µM (inactive)
- GI50 (SNB-19): > 100 µM (inactive)
- GI50 (MDA-N): > 100 µM (inactive)
- GI50 (SK-MEL-28): > 100 µM (inactive)
- GI50 (OVCAR-5): > 100 µM (inactive)
- GI50 (KM12): > 100 µM (inactive)
- GI50 (SN12C): > 100 µM (inactive)
- GI50 (SK-MEL-5): > 100 µM (inactive)
- GI50 (PC-3): > 100 µM (inactive)
- GI50 (HOP-62): > 100 µM (inactive)
- GI50 (UACC-62): > 100 µM (inactive)
- GI50 (CAKI-1): > 100 µM (inactive)
- GI50 (COLO 205): > 100 µM (inactive)
- GI50 (SNB-75): > 100 µM (inactive)
- GI50 (HCT-15): > 100 µM
- GI50 (Malme-3M): > 100 µM (inactive)
- GI50 (MCF7): > 100 µM (inactive)
- GI50 (ACHN): > 100 µM (inactive)
- GI50 (T47D): > 100 µM (inactive)
